Measurements from patent publication US10519207B2, “Compositions and methods for treating opioid tolerance” (priority 2015, dated 2019).

How the values were obtained:
IL-10 mRNA = assay: qPCR of IL-10 mRNA in vlPAG; format: in vivo, rat; conditions: chronic morphine with or without XPro1595
Description: (§1) Gene expression is reported as the ratio of the gene of interest to Gapdh, and are normalized to the Vehicle+Saline condition. Changes in mRNA between groups were assessed using an ANOVA on ranks (Kruskal-Wallis), and Mann Whitney U post-hoc comparisons (SPSS). Data are expressed as median; p<0.05 was considered significant.

IL-6 mRNA = assay: qPCR of IL-6 mRNA in vlPAG; format: in vivo, rat; conditions: chronic morphine with or without XPro1595
Description: as §1

TNF mRNA = assay: qPCR of TNF mRNA in vlPAG; format: in vivo, rat; conditions: chronic morphine with or without XPro1595
Description: as §1

EAAC1 mRNA = assay: In situ hybridization of neuronal EAAC1 mRNA in caudal vlPAG; format: in vivo, rat
solTNF = molecular target: T1, solTNF (Mus musculus, UniProt P06804); conditions: systemic delivery; cited from earlier work
T1 construct: There are two active forms of TNF, soluble-TNF (solTNF) and transmembrane-TNF (tmTNF); host or cells: endogenous TNF of EAE animals
T1 sequence (P06804 80-235 limits assumed): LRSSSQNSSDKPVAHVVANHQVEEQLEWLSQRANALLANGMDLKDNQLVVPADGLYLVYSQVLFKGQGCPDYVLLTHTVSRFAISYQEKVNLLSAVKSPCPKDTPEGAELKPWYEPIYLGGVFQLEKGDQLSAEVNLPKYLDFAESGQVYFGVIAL

TNF = conditions: morphine tolerant animals; cited from earlier work
soluble TNF (solTNF) = molecular target: T2, soluble TNF (solTNF) (Rattus norvegicus, UniProt P16599); format: in vivo; conditions: 24 and 72 hours after intra-PAG administration
T2 construct: soluble TNF which is formed after cleavage of tmTNF by ADAM17/TNF-αlpha Converting Enzyme (TACE); from tissue; host or cells: living rat, ventrolateral periaqueductal gray (vlPAG) / CNS
Description: Male Sprague Dawley rats (250-350 g; Charles River; MA) were pair-housed on a 12:12 hour light:dark cycle (lights on at 7:00 am) with ad libitum access to food and water. The Institutional Animal Care and Use Committee at Georgia State University approved all studies.
Rats were implanted with bilateral cannula aimed at the ventrolateral PAG (vlPAG) and received bilateral infusions of lenti-DN-TNF or lenti-GFP while under surgical anesthesia.

Chain of TNF (P16599 80-235 limits assumed): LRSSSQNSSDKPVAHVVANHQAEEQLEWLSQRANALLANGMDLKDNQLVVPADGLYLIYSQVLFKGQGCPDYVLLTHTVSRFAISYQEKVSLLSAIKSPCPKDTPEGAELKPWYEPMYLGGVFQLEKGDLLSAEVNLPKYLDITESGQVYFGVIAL
T2 sequence (P16599 80-235): as the sequence (P16599 80-235 limits assumed) above

CN1CC[C@]23c4c5ccc(O)c4O[C@H]2[C@@H](O)C=C[C@H]3[C@H]1C5 [morphine]
vlPAG IL-10 mRNA (IL-10 mRNA): No significant change
vlPAG IL-6 mRNA (IL-6 mRNA): No significant change
vlPAG TNF gene expression (TNF mRNA): not statistically significant
vlPAG EAAC1 mRNA expression (EAAC1 mRNA; systemic morphine for 3 days): No significant effect

etanercept
outcome in EAE (solTNF): neither therapeutic nor neuroprotective
effect on acute morphine inhibition of tail flick reflex (TNF): restores the ability of morphine to acutely inhibit tail flick reflex

lipopolysaccharide [LPS]
baseline paw withdrawal latencies (soluble TNF (solTNF)): no effect
vlPAG EAAC1 mRNA (EAAC1 mRNA; chronic vlPAG microinfusions of LPS): did not alter
